Test results from US20240190920A1, “BECLIN 1-TARGETED STAPLED PEPTIDE AND PHARMACEUTICAL COMPOSITION” (Shenzhen Research Institute of the Hong Kong Polytechnic …, priority 2021, published 2024).
Like-named read-outs stand apart in the source and are kept apart here. Bridge positions count the residues as written; N and C are the ends. Square brackets hold non-standard residues; d marks the D form. Ends that are not written are not given here. Peptide text beside a SMILES is read from it. R8 = C=CCCCCCC[C@@](C)(N)C(=O)O; S5 = C=CCCC[C@](C)(N)C(=O)O

What was measured:
[1] = target: T1, Beclin 1 coiled coil domain (Homo sapiens, UniProt Q14457); assay: Isothermal titration calorimetry (ITC) binding affinity; conditions: 25° C., pH 7.4, Tat-fused peptide
T1 construct: the coiled coil domain of human Beclin 1 (residues 176-268); thioredoxin-6xHis fusion tag with HRV 3C protease cleavage site; made in house; host or cells: Escherichia coli BL21(DE3)
Procedure: The expression and purification of Beclin 1 coiled coil domain is performed as described previously. Briefly, the coiled coil domain of human Beclin 1 (residues 176-268) is cloned into the modified pET32a vector containing the human rhinovirus (HRV) 3C protease cleavage site and thioredoxin-6×His fusion tag. Recombinant protein for the Beclin1 coiled oil domain is expressed in Escherichia coli BL21(DE3) and purified by Ni^2+-NTA affinity chromatography (His Trap HP, GE Healthcare) first and followed by size-exclusion chromatography (Superdex 75, GE Healthcare).
ITC assays are carried out by MicroCal PEAQ-ITC Automated (Marvern) at 25° C. All designed peptides and purified protein for the Beclin 1 coiled coil domain are dialyzed into the buffer containing 50 mM Tris, 150 mM NaCl at pH 7.4. For each titration assay, the injection syringe is loaded with 40 μl of peptide and the cell is loaded with Beclin 1 coiled coil domain protein. Typically, titrations consist of 19 injections, and each injection is performed at a time interval of 180 seconds to ensure that the titration peak returns to the baseline. The titration data are analyzed using the MicroCal PEAQ-ITC Analysis software and fitted by the one-site binding model.

SKBR3 cells = assay: Flow cytometry with Annexin V FITC-PI staining; assay type: cell-based
Procedure: FIG. 12 is a schematic diagram of the result showing the peptides based on strategy (i7-01s) scaffold induce cell death with necrotic features. Flow cytometry analysis with Annexin V FITC-PI staining is performed in SKBR3 cells after treatment of the indicated peptides for 24 hours.
The degree of cellular apoptosis and necrosis is assessed by flow cytometry following the standard protocol provided by the manufacturer. Briefly, SKBR3 cells after the indicated peptide treatment are harvested by trypsin, labelled with Annexin V and PI (Invitrogen), subjected to flow cytometer system (BD Accuri C6), and analyzed by BD Accuri C6 software. The cell populations can be distinguished by the staining of Annexin V/PI. Typically, cellular population in the lower left quadrant is live cells (Annexin V^−, PI^−), the lower right quadrant represents early apoptotic cells (Annexin V^+, PI^−), the upper right quadrant represents late apoptotic cells (Annexin V^+, PI^+), the upper left quadrant represents necrotic cells (Annexin V^−, PI^+).

HER2 = assay: EGF-induced endolysosomal degradation of HER2, Western blot; assay type: cell-based; conditions: SKBR3, 2 μM, 200 ng/ml EGF
Procedure: (§1) FIG. 9 is a schematic diagram of the result showing peptides based on (I7-01s) scaffold are potent inducers of endolysosomal trafficking. (a-c) Western blot to assess the HER2 and EGFR levels in SKBR3 cells. Cells are starved overnight and are treated with 200 ng/ml EGF respectively with vehicle control (a), 2 μM Tat-SP4 (b), 2 μM i7-01s-31 (c). (d & e) Time-dependent plots to quantify HER2 and EGFR degradation profiles after three independent experiments. The levels of HER2 (d) and EGFR (e) are normalized to the β-actin level at different time points and then further normalized to time 0, when the ligand EGF is added. Data are presented as mean±SEM (n=3).
In some embodiments, the Beclin 1-targeting stapled peptide provided by the present disclosure can effectively promote endolysosomal trafficking. As a scaffolding member of the PI3KC3 complex, Beclin 1 is essential for multiple PI3KC3-dependent processes including autophagy, endolysosomal trafficking and phagocytosis. To assess the efficacy of the newly designed peptides on the endolysosomal trafficking process, the ligand-induced endolysosomal degradation of cell surface receptors HER2 and EGFR is characterized by western blotting using SKBR3 breast cancer cell line that over-expresses both EGFR and HER2. […] In contrast, i7-01s-31 treatment at 2 μM results in significant reduction of HER2 level, with about 50% decrease at 15 hours post EGF stimulation, and about 70% decrease at 24 hours (as shown in FIGS. 9c & 9d). i7-01s-31 treatment also strongly promotes EGFR degradation, with approximately 60% reduction at 15 hours post EGF stimulation (as shown in FIGS. 9c & 9e).
Whole cell lysates are extracted using Laemmli sample buffer (62.5 mM Tris-HCl, pH 6.8, 2% SDS, 25% glycerol, 5% β-mercaptoethanol) supplemented with EDTA-free protease inhibitor cocktail (Roche). Protein concentration is determined using a standard Bradford assay before immunoblotting. Protein samples are separated by SDS-PAGE, transferred to a PVDF membrane (Millipore, USA), and incubated with the primary antibodies and HRP-conjugated secondary antibodies. […]

EGFR = assay: EGF-induced endolysosomal degradation of EGFR, Western blot; assay type: cell-based; conditions: SKBR3, 2 μM, 200 ng/ml EGF
Procedure: as §1
In some embodiments, the Beclin 1-targeting stapled peptide provided by the present disclosure can effectively promote endolysosomal trafficking. As a scaffolding member of the PI3KC3 complex, Beclin 1 is essential for multiple PI3KC3-dependent processes including autophagy, endolysosomal trafficking and phagocytosis. […]
Whole cell lysates are extracted using Laemmli sample buffer (62.5 mM Tris-HCl, pH 6.8, 2% SDS, 25% glycerol, 5% β-mercaptoethanol) supplemented with EDTA-free protease inhibitor cocktail (Roche). Protein concentration is determined using a standard Bradford assay before immunoblotting. […]

T1 sequence (Q14457 176-268): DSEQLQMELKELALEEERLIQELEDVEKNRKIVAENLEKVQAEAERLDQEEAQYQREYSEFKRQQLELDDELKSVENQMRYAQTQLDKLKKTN

Row | Molecule | Kd [1] | change of Annexin V positive cells (apoptosis) (SKBR3 cells; SKBR3, 24 hours) | further results
1 | Ace-RFIQR8LEVVIKS5RSV-Nme (Ac-RFIQ[R8]LEVVIK[S5]RSV; staple 5-12; not fully specified (C-terminus); printed as Ace-RFIQR8LEVVIKS5RSV-Nme) [i7-01s-34] | No binding |  | 
2 | COc1cccc2c1C(=O)c1c(O)c3c(c(O)c1C2=O)C[C@@](O)(C(=O)CO)C[C@@H]3O[C@H]1C[C@H](N)[C@H](O)[C@H](C)O1 [doxorubicin, reference compound] |  | significant increase | 
3 | CC[C@H](C)[C@H](NC(=O)[C@H](CC(C)C)NC(=O)[C@H](C)NC(=O)[C@H](CCCNC(=N)N)NC(=O)[C@H](CCCNC(=N)N)NC(=O)[C@H](CCCNC(=N)N)NC(=O)[C@H](CCC(N)=O)NC(=O)[C@H](CCCNC(=N)N)NC(=O)[C@H](CCCNC(=N)N)NC(=O)[C@H](CCCCN)NC(=O)[C@H](CCCCN)NC(=O)[C@H](CCCNC(=N)N)NC(=O)CNC(=O)[C@H](Cc1ccc(O)cc1)NC(C)=O)C(=O)N[C@@H](CCC(N)=O)C(=O)N[C@]1(C)CCCCCCC=CCCC[C@@](C)(C(=O)N[C@@H](CCCNC(=N)N)C(=O)N[C@@H](CCCCN)C(=O)N[C@@H](CCCNC(=N)N)C(N)=O)NC(=O)[C@H](CCCCN)NC(=O)[C@H](CCC(=O)O)NC(=O)[C@H](C(C)C)NC(=O)[C@H](CC(=O)O)NC(=O)[C@H](CCC(=O)O)NC(=O)[C@H](CCC(N)=O)NC1=O [i7-01s-54, Ace-ALIQR8QEDVEKS5RKR-Nme] (Ac-YGRKKRRQRRRALIQ[R8]QEDVEK[S5]RKR-NH2; staple 16-23) |  |  | Kd ([1]; read-out: Kd): 311 ± 54.6 µM
4 | CC[C@H](C)[C@H](NC(=O)[C@H](CC(C)C)NC(=O)[C@H](CCCNC(=N)N)NC(=O)[C@H](CCCNC(=N)N)NC(=O)[C@H](CCCNC(=N)N)NC(=O)[C@H](CCCNC(=N)N)NC(=O)[C@H](CCC(N)=O)NC(=O)[C@H](CCCNC(=N)N)NC(=O)[C@H](CCCNC(=N)N)NC(=O)[C@H](CCCCN)NC(=O)[C@H](CCCCN)NC(=O)[C@H](CCCNC(=N)N)NC(=O)CNC(=O)[C@H](Cc1ccc(O)cc1)NC(C)=O)C(=O)N[C@@H](CO)C(=O)N[C@@H](CCC(=O)O)C(=O)N[C@@H](CC(C)C)C(=O)N[C@]1(C)CCCCCCC=CCCC[C@@](C)(C(=O)N[C@@H](C)C(N)=O)NC(=O)[C@H](CCCNC(=N)N)NC(=O)[C@H](CCC(N)=O)NC(=O)[C@H](CCCCN)NC(=O)[C@H](CCC(=O)O)NC(=O)[C@H](CCCNC(=N)N)NC(=O)[C@H](CC(=O)O)NC1=O [Tat-SP4, Ac-[Tat]-RLISEL(R8)DREKQR(S5)A-NH2, reference compound] (Ac-YGRKKRRQRRRRLISEL[R8]DREKQR[S5]A-NH2; staple 18-25) |  | no increase | HER2 degradation profile (HER2): does not show any noticeable impact; EGFR degradation profile (EGFR): does not show any noticeable impact; PI positive cells (SKBR3 cells; SKBR3, 10 μM, 24 hours): approximately 8%; change of PI positive staining cells (dead cells) (SKBR3 cells; SKBR3, 24 hours): significant increase

Second part, led by results:

Row | Kd [1] | Molecule | change of Annexin V positive cells (apoptosis) (SKBR3 cells; SKBR3, 24 hours) | further results
5 | No binding | Ace-RLIQR8REDVEKS5RKR-Nme (Ac-RLIQ[R8]REDVEK[S5]RKR; staple 5-12; not fully specified (C-terminus); printed as Ace-RLIQR8REDVEKS5RKR-Nme) [i7-01s-36] |  | 
6 | No binding | Ace-RLLQR8LKTVLKS5RSV-Nme (Ac-RLLQ[R8]LKTVLK[S5]RSV; staple 5-12; not fully specified (C-terminus); printed as Ace-RLLQR8LKTVLKS5RSV-Nme) [i7-01s-30] |  | 
